Laboratory results from patent US8614068B2, “Process for producing hepcidin” (Hellenic Pasteur Institute, priority 2007, dated 2013).
Entries after “also recorded” stand apart in the source; their conditions may differ.

Experiments:
FPN1-GFP = biological target: T1, FPN1-GFP (Mus musculus, UniProt Q9JHI9); test: FPN1-GFP internalization by confocal microscopy in HEK293-Fpn cells; type: cell-based; conditions: HEK293-Fpn cells induced with ponasterone 24 h, treated 3 h
T1 construct: expressed in transfected cells
T1 sequence (Q9JHI9 1-570): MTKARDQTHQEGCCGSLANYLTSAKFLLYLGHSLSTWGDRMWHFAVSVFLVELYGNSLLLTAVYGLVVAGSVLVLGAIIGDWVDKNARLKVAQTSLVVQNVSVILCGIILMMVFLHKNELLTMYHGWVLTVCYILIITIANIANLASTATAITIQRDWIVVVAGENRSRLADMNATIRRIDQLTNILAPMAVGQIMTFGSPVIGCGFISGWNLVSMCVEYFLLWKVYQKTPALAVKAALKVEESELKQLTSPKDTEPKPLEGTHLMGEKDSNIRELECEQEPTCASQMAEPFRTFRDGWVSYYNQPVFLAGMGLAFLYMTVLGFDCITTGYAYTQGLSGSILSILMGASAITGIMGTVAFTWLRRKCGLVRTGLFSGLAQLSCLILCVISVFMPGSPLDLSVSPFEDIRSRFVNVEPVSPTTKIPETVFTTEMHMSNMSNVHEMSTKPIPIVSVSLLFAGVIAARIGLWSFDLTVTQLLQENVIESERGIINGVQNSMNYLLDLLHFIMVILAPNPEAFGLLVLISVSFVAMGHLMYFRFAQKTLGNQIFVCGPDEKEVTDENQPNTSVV
Experimental: A, RAW 264.7 macrophages were treated with 11 μM and 10 μM of synthetic hepcidin-25 (having the sequence of SEQ ID NO. 2) and Hep-25His (having the sequence of SEQ ID NO. 6) for 4 h at 37° C. or with PBS as negative control. Cell lysates were subjected to 8% SDS PAGE and Western Blot with antibodies against TfR1, Ferroportin and actin as loading control. B, The signal density of ferroportin, TfR1 and actin protein bands from two independent experiments were quantified by densitometry and their intensity relative to actin was calculated. Data are expressed as mean of ratios of TfR1 or to actin levels ±S.D. for each experimental condition. *p<0.01. […] Hep25-His, negative peptide and PBS was incubated with Raw 264.7 macrophages, followed by cross-linking with DSS. Cell lysates were incubated with Ni2-NTA and eluates were analyzed by Western blot using anti-FPN1 Ab. […] Fluorescence was visualized with a Leica TCS confocal microscope. […]
Furthermore, the internalization of FPN1 in the presence of Hep25-His (having the sequence of SEQ ID NO. 6) was analyzed in HEK293-Fpn cells by confocal microscopy; these cells express an FPN1-GFP fusion construct on the plasma membrane (Nemeth, E., Tuttle, M. S., Powelson, J., Vaughn, M. B., Donovan, A., Ward, D. M. Ganz, T., Kaplan, J. (2004) Science 306, 2090-3).

RAW 264.7 macrophages = test: Labile Iron Pool (LIP) calcein assay; type: cell-based, murine; conditions: Hep-25His-treated RAW 264.7 macrophages
Experimental: FIG. 6. Recombinant tagged hepcidins increase the Labile Iron Pool in RAW 264.7 macrophages. RAW 264.7 macrophages were treated with 10 μM Hep-25His having the sequence of SEQ ID NO. 6, Hep-25MycHis having the sequence of SEQ ID NO. 8, Hep-20MycHis having the sequence of SEQ ID NO. 7 and negative peptide having the sequence of SEQ ID NO. 9 for 4 h at 37° C. PBS was used as negative and FAC at 30 μg/ml as positive control. Relative alterations of the LIP were monitored with calcein upon addition of isonicotinoyl-hydraxone salicylaldehyde. Data are expressed as mean±S.D. of two independent experiments performed in triplicates relative to control. **p<0.001, *p<0.05. Statistical analysis was performed with t-Test.
LIP assay—The fluorescent metalosensor calcein (Molecular Probes, Eugene, Oreg.) was used for the measurement of alterations in the levels of the LIP (Labile Iron Pool) (Murphy, A. T., Witcher, D. R., Luan, P., and Wroblewski, V. J. (2007) Blood 110, 1048-54). 1×10^6 RAW 264.7 macrophages were plated in 6-well plates. […] Fluorescence was measured with the Perkin Elmer LS55 fluorescent plate reader (Perkin Elmer LifeSciences, Boston Mass.) (488 nm excitation, 517 nm emission). […] Relative changes were expressed as percentage of the control. […]

hepcidin-25His [Hep-25His]
internalization of FPN1-GFP (FPN1-GFP): promoted the internalization of FPN1-GFP; also recorded: causes the internalization of FPN1-GFP
retention of iron, LIP levels (RAW 264.7 macrophages): increase in LIP levels
